Two molecules from US20140135221A1, “Desiccant and Defoliant Composition for Crops” (NIHON NOHYAKU CO., LTD, priority 2011, published 2014) can be followed below.

The subject of the test is seed potatoes (variety: danshaku). Nature of the test: Desiccation and defoliation effect on potted potato plants in greenhouse (Test Example 1). It counts as in vivo. The note with it: potato foliage; for desiccation and defoliation effect, 4 DAT: 4 days after treatment; for desiccation and defoliation effect, 7 DAT: 7 days after treatment; for desiccation and defoliation effect, 10 DAT: 10 days after treatment; for desiccation and defoliation effect, 16 DAT: 16 days after treatment. How it is done: In 5100-ml plastic pots filled up with soil (clay loam), seed potatoes (variety: danshaku) were planted and cultivated in a greenhouse. When the foliage was fully developed, specifically, at 30 days after flowering, the test plants were treated with the predetermined effective dosage (expressed as the amounts of active ingredients in g/ha) of the composition of the present invention in a liquid form, and further cultivated in the greenhouse. In the period from 4 days to 16 days after the treatment, the desiccation effect was surveyed and the herbicidal effect was evaluated according to the criterion described below.
Regarding the criterion for evaluating the desiccation and defoliation effect, the extent of desiccation and defoliation was graded from 0% (no effect) to 100% (completely desiccated).

Take `CCOC(=O)COc1cc(-c2nn(C)c(OC(F)F)c2Cl)c(F)cc1Cl` [Pyraflufen-ethyl]: where the note is “dosage 10 g.a.i./ha”, the “desiccation and defoliation effect, 4 DAT” value was found to be 38%; the “desiccation and defoliation effect, 7 DAT” value worked out at 42%; the “desiccation and defoliation effect, 10 DAT” value is given as 45%; the “desiccation and defoliation effect, 16 DAT” value turned out to be 58%. Also, for the setting “dosage 20 g.a.i./ha”, the “desiccation and defoliation effect, 4 DAT” value was 48%; the “desiccation and defoliation effect, 7 DAT” value worked out at 50%; the “desiccation and defoliation effect, 10 DAT” value is reported as 55%; the “desiccation and defoliation effect, 16 DAT” value came to 68%.

Consider `Cc1nn(-c2cc(CC(Cl)C(=O)O)c(Cl)cc2F)c(=O)n1C(F)F` (stereo not shown) [Carfentrazone], for which, for the setting “dosage 32 g.a.i./ha”, the “desiccation and defoliation effect, 4 DAT” value was found to be 18%; the “desiccation and defoliation effect, 7 DAT” value amounted to 22%; the “desiccation and defoliation effect, 10 DAT” value came to 33%; the “desiccation and defoliation effect, 16 DAT” value is on record as 40%. For the setting “dosage 64 g.a.i./ha”, the “desiccation and defoliation effect, 4 DAT” value is 45%; the “desiccation and defoliation effect, 7 DAT” value was 52%; the “desiccation and defoliation effect, 10 DAT” value is on record as 58%; the “desiccation and defoliation effect, 16 DAT” value is 70%.
